This assay concerns the target T1, human chemokine receptor 2 isoform B (Homo sapiens, UniProt P41597).
T1 construct: host or cells: CHOK1-CCR2B-A5 (CHO-K1) cells
T1 sequence (P41597 1-360 isoform P41597-2): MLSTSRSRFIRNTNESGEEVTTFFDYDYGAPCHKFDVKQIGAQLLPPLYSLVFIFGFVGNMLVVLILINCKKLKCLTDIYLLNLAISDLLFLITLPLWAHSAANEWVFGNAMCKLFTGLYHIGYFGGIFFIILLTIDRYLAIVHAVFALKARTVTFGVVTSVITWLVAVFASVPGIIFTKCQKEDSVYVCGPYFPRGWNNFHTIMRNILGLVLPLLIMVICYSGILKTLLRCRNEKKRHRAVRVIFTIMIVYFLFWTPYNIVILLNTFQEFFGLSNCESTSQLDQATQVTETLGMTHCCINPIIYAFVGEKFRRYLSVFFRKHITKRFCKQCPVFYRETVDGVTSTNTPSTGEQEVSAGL
As to the kind of experiment: Calcium mobilization assay. It counts as cell-based. The following applies: Ca mobilization assay for CCR2; CHOK1-CCR2B-A5 cells; antagonist activity against 20 nM MCP-1; FLIPR, Fluo-4. The procedure: Calcium Mobilization Assay
CHOK1-CCR2B-A5 cells (from Euroscreen) stably overexpressing the human chemokine receptor 2 isoform B were cultured in Nutrient Hams F12 medium supplemented with 5% FBS, 100 U/ml penicillin, 100 μg/ml streptomycin, 400 μg/ml G418 and 5 μg/ml puromycin.
For the assay cells were grown overnight in 384-well black clear flat bottom polystyrene plates (Costar) at 37° C. at 5% CO2. After washing with DMEM, 20 mM Hepes, 2.5 mM probenecid, 0.1% BSA (DMEM assay buffer) cells were loaded with 4 μM Fluo-4 in the same DMEM assay buffer for 2 hours at 30° C. Excess dye was removed and cells were washed with DMEM assay buffer. 384-well compound plates were prepared with DMEM assay buffer/0.5% dimethyl sulfoxide with or without various concentrations of test compounds. Usually compounds were tested for agonist and antagonist activity.
Test compounds were added to the assay plate and agonist activity was monitored as fluorescence for 80 seconds with a FLIPR (488 nm excitation; 510-570 nm emission; Molecular Devices). After 20-30 min. of incubation at 30° C., 20 nM MCP-1 (R&D; Roche) was added and fluorescence was monitored again for 80 seconds. Increases in intracellular calcium are reported as maximum fluorescence after agonist exposure minus basal fluorescence before exposure. Antagonist activity is indicated as inhibitor concentration required for 50% inhibition of specific calcium increases.
On the technique in general: Calcium assays in cells follow changes in intracellular calcium, usually with a dye or a luminescent sensor.

Molecules are shown by their SMILES.

For orientation: IC50 means the concentration needed to halve the response being measured. With `NC(=O)[C@H](CCN1CCC2(CC2)[C@H](O)C1)N1CCN(c2ccc(Cl)c(Cl)c2)CCC1=O` [Example 64, (S)-2-[4-(3,4-Dichloro-phenyl)-7-oxo-[1,4]diazepan-1-yl]-4-((S)-4-hydroxy-6-aza-spiro[2.5]oct-6-yl)-butyramide], the IC50 is 663 nM.
On to `C[C@H]1C(=O)N(CCCN2CCC3(CC3)[C@H](O)C2)CCN1c1ccc(F)c(OC(F)(F)F)c1` [Example 86, (S)-4-(4-Fluoro-3-trifluoromethoxy-phenyl)-1-[3-((S)-4-hydroxy-6-aza-spiro[2.5]oct-6-yl)-propyl]-3-methyl-piperazin-2-one], for which the IC50 was 33 nM.
Consider `C[C@H]1C(=O)N(C[C@@H](O)CCN2CCC3(CC3)[C@H](O)C2)CCN1c1ccc(Cl)c(Cl)c1` [Example 105, (S)-4-(3,4-Dichloro-phenyl)-1-[(S)-2-hydroxy-4-((S)-4-hydroxy-6-aza-spiro[2.5]oct-6-yl)-butyl]-3-methyl-piperazin-2-one], for which the IC50 was determined as 27 nM.
With `COCC(CCN1CCC2(CC2)[C@H](O)C1)N1CCN(c2cccc(C(F)(F)F)c2)C(C)C1=O` (stereo partly drawn) [Example 56, 1-[3-((S)-4-Hydroxy-6-aza-spiro[2.5]oct-6-yl)-1-methoxymethyl-propyl]-3-methyl-4-(3-trifluoromethyl-phenyl)-piperazin-2-one], the IC50 came out at 10 nM.
As for `C[C@H]1C(=O)N(CCCN2CCC3(CC3)[C@H](O)C2)CCN1c1ccc(C(F)(F)F)cc1` [Example 96, (S)-1-[3-((S)-4-Hydroxy-6-aza-spiro[2.5]oct-6-yl)-propyl]-3-methyl-4-(4-trifluoromethyl-phenyl)-piperazin-2-one], the figure is 26 nM; as for `COC(=O)[C@H](CCN1CCC2(CC2)[C@H](O)C1)N1CCN(c2ccc(OC(F)(F)F)cc2)CCC1=O` [Example 11, (S)-4-((S)-4-Hydroxy-6-aza-spiro[2.5]oct-6-yl)-2-[7-oxo-4-(4-trifluoromethoxy-phenyl)-[1,4]diazepan-1-yl]-butyric acid methyl ester], 400 nM.
The value for `C[C@H]1C(=O)N(CCCCN2CCC3(CC3)[C@H](O)C2)CCN1c1ccc(Cl)c(Cl)c1` [Example 94, (S)-4-(3,4-Dichloro-phenyl)-1-[4-((S)-4-hydroxy-6-aza-spiro[2.5]oct-6-yl)-butyl]-3-methyl-piperazin-2-one] was 8 nM; that for `COC(=O)[C@H](CCN1CCC2(CC2)[C@H](O)C1)N1CCN(c2cccc(Cl)c2)CCC1=O` [Example 3, (S)-2-[4-(3-Chloro-phenyl)-7-oxo-[1,4]diazepan-1-yl]-4-((S)-4-hydroxy-6-aza-spiro[2.5]oct-6-yl)-butyric acid methyl ester] was 130 nM.
For the molecule `C[C@H]1C(=O)N(CCCCN2CCC3(CC3)[C@H](O)C2)CCN1c1cccc(OC(F)(F)F)c1` [Example 95, (S)-1-[4-((S)-4-Hydroxy-6-aza-spiro[2.5]oct-6-yl)-butyl]-3-methyl-4-(3-trifluoromethoxy-phenyl)-piperazin-2-one], the IC50 was found to be 13 nM.
As for `CC1C(=O)N(CC[C@H](O)CN2CCC3(CC3)[C@H](O)C2)CCN1c1ccc(Cl)c(Cl)c1` (stereo partly drawn) [Example 107, 4-(3,4-Dichloro-phenyl)-1-[(S)-3-hydroxy-4-((S)-4-hydroxy-6-aza-spiro[2.5]oct-6-yl)-butyl]-3-methyl-piperazin-2-one], the half-inhibitory concentration (IC50) is 15 nM.
As for `COC(=O)[C@H](CCN1CCC2(CC2)[C@H](O)C1)N1CCN(c2ccc(Cl)c(Cl)c2)CCC1=O` [Example 1, (S)-2-[4-(3,4-Dichloro-phenyl)-7-oxo-[1,4]diazepan-1-yl]-4-((S)-4-hydroxy-6-aza-spiro[2.5]oct-6-yl)-butyric acid methyl ester], the figure is 40 nM.
As for `C[C@@H]1C(=O)N(C[C@H](O)CN2CCC3(CC3)[C@H](O)C2)CCN1c1ccc(Cl)c(Cl)c1` [Example 100, (R)-4-(3,4-Dichloro-phenyl)-1-[(R)-2-hydroxy-3-((S)-4-hydroxy-6-aza-spiro[2.5]oct-6-yl)-propyl]-3-methyl-piperazin-2-one], the IC50 is 334 nM.
For the molecule `O=C1CCN(c2ccc(Cl)c(Cl)c2)CCN1[C@H](CO)CCN1CCC2(CC2)[C@H](O)C1` [Example 2, 1-(3,4-Dichloro-phenyl)-4-[(S)-3-((S)-4-hydroxy-6-aza-spiro[2.5]oct-6-yl)-1-hydroxymethyl-propyl]-[1,4]diazepan-5-one], the IC50 came to 10 nM.
As to `COC[C@H](CCN1CCC2(CC2)[C@H](O)C1)N1CCN(c2cccc(C(F)(F)F)c2)CCC1=O` [Example 23, 4-[(S)-3-((S)-4-Hydroxy-6-aza-spiro[2.5]oct-6-yl)-1-methoxymethyl-propyl]-1-(3-trifluoromethyl-phenyl)-[4]diazepan-5-one], the IC50 was determined as 10 nM.
`COC(=O)C(CCCN1CCC(C)(O)CC1)N1CCN(c2cccc(C(F)(F)F)c2)CCC1=O` (racemic) [Example 29, (rac)-5-(4-Hydroxy-4-methyl-piperidin-1-yl)-2-[7-oxo-4-(3-trifluoromethyl-phenyl)-[1,4]diazepan-1-yl]-pentanoic acid methyl ester]: the IC50 amounted to 640 nM.
As for `C[C@H]1C(=O)N(CCCN2CCC3(CC3)[C@H](O)C2)CCN1c1ccc2ccccc2c1` [Example 82, (S)-1-[3-((S)-4-Hydroxy-6-aza-spiro[2.5]oct-6-yl)-propyl]-3-methyl-4-naphthalen-2-yl-piperazin-2-one], the figure is 73 nM.
The value for `O=C1CCN(c2ccc(C(F)(F)F)cc2)CCN1[C@H](CO)CCN1CCC2(CC2)[C@H](O)C1` [Example 20, 4-[(S)-3-((S)-4-Hydroxy-6-aza-spiro[2.5]oct-6-yl)-1-hydroxymethyl-propyl]-1-(4-trifluoromethyl-phenyl)-[1,4]diazepan-5-one] was 350 nM.
Consider `C[C@H]1C(=O)N(CCCN2CCC3(CC3)[C@H](O)C2)CCN1c1ccc(Cl)c(OC(F)(F)F)c1` [Example 84, (S)-4-(4-Chloro-3-trifluoromethoxy-phenyl)-1-[3-((S)-4-hydroxy-6-aza-spiro[2.5]oct-6-yl)-propyl]-3-methyl-piperazin-2-one], for which the IC50 was found to be 15 nM.
Turning to `O=C1CCN(c2cccc(C(F)(F)F)c2)CCN1[C@H](CO)CCN1CCC2(CC2)[C@H](O)C1` [Example 6, 4-[(S)-3-((S)-4-Hydroxy-6-aza-spiro[2.5]oct-6-yl)-1-hydroxymethyl-propyl]-1-(3-trifluoromethyl-phenyl)-[1,4]diazepan-5-one], the IC50 is 10 nM.
As to `COC(=O)[C@H](CCN1CCC2(CC2)[C@H](O)C1)N1C[C@@H](C)N(c2ccc(Cl)c(Cl)c2)CCC1=O` [Example 65, (S)-2-[(R)-4-(3,4-dichloro-phenyl)-3-methyl-7-oxo-[1,4]diazepan-1-yl]-4-((S)-4-hydroxy-6-aza-spiro[2.5]oct-6-yl)-butyric acid methyl ester], the IC50 came to 16 nM.
Turning to `C[C@H]1C(=O)N(CCCN2CCC3(CC3)[C@H](O)C2)CCN1c1ccc(C(F)(F)F)c(F)c1` [Example 102, (S)-4-(3-Fluoro-4-trifluoromethyl-phenyl)-1-[3-((S)-4-hydroxy-6-aza-spiro[2.5]oct-6-yl)-propyl]-3-methyl-piperazin-2-one], the IC50 was found to be 6 nM.
For `COC(=O)C(CCN1CCC2(CC2)[C@H](O)C1)N1CCN(c2cccc(OC(F)(F)F)c2)C(C)C1=O` (stereo partly drawn) [Example 47, 4-((S)-4-Hydroxy-6-aza-spiro[2.5]oct-6-yl)-2-[3-methyl-2-oxo-4-(3-trifluoromethoxy-phenyl)-piperazin-1-yl]-butyric acid methyl ester], the IC50 was 10 nM.
Consider `C[C@H]1C(=O)N(CCCN2CCC3(CC3)[C@H](O)C2)CCN1c1ccc(F)c(C(F)(F)F)c1` [Example 78, (S)-4-(4-Fluoro-3-trifluoromethyl-phenyl)-1-[3-((S)-4-hydroxy-6-aza-spiro[2.5]oct-6-yl)-propyl]-3-methyl-piperazin-2-one], for which the IC50 worked out at 13 nM.
For the molecule `CC1CN([C@@H](CO)CCN2CCC3(CC3)[C@H](O)C2)C(=O)CCN1c1ccc(Cl)c(Cl)c1` (mixture of isomers) [Example 68, (R,S)-1-(3,4-Dichloro-phenyl)-4-[(S)-3-((S)-4-hydroxy-6-aza-spiro[2.5]oct-6-yl)-1-hydroxymethyl-propyl]-2-methyl-[1,4]diazepan-5-one], the IC50 turned out to be 46 nM.
On to `CN(CCO)C(=O)[C@H](CCN1CCC2(CC2)[C@H](O)C1)N1CCN(c2ccc(Cl)c(Cl)c2)CCC1=O` [Example 61, (S)-2-[4-(3,4-Dichloro-phenyl)-7-oxo-[1,4]diazepan-1-yl]-4-((S)-4-hydroxy-6-aza-spiro[2.5]oct-6-yl)-N-(2-hydroxy-ethyl)-N-methyl-butyramide], for which the IC50 was found to be 76 nM.

The values above are taken from patent US8138175B2, “Heterocyclyl compounds” (Hoffmann-La Roche Inc., priority 2008, dated 2012).
